Like-named read-outs stand apart in the source and are kept apart here.
How the values were obtained:
FOXO3 = experiment: qPCR analysis of FOXO3-regulated genes; format: cell-based, human; settings: for fold induction at 10 µM: Homo sapiens; for K = Sestrin induction: score
Procedure, shortened: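 WI-38 cells treated with compound at 10 μM for 24 h, followed by Cells-to-Ct RT-qPCR of FOXO3 target genes normalised to B2M, PPIA and GAPDH. FOXO3 or NRF2 dependence tested by prior 10 nM siRNA knockdown (36 h transfection, compound added ~24 h after replating).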

C. elegans = C. elegans lifespan assays (liquid and plate); format: in vivo, Caenorhabditis elegans; settings: for ILS at 66 µM / ILS at 60 µM: Caenorhabditis elegans; for Extension of C. elegans' lifespan (qualitative): in at least 3 to 4 trials, group range ~10% to ~50%; for O = Life span- extending scores in worms: score scale 0 to 2, 4 to 6 independent trials; for M = Lifespan-extending scores in worms: summary score
human PARP1 = target: T1, human PARP1 (Homo sapiens, UniProt P09874); experiment: PARP inhibitor assay (HT Fluorescent Homogeneous PARP Inhibition Assay Kit); format: biochemical; settings: score
T1 construct: purchased Trevigen
T1 sequence (P09874 whole entry): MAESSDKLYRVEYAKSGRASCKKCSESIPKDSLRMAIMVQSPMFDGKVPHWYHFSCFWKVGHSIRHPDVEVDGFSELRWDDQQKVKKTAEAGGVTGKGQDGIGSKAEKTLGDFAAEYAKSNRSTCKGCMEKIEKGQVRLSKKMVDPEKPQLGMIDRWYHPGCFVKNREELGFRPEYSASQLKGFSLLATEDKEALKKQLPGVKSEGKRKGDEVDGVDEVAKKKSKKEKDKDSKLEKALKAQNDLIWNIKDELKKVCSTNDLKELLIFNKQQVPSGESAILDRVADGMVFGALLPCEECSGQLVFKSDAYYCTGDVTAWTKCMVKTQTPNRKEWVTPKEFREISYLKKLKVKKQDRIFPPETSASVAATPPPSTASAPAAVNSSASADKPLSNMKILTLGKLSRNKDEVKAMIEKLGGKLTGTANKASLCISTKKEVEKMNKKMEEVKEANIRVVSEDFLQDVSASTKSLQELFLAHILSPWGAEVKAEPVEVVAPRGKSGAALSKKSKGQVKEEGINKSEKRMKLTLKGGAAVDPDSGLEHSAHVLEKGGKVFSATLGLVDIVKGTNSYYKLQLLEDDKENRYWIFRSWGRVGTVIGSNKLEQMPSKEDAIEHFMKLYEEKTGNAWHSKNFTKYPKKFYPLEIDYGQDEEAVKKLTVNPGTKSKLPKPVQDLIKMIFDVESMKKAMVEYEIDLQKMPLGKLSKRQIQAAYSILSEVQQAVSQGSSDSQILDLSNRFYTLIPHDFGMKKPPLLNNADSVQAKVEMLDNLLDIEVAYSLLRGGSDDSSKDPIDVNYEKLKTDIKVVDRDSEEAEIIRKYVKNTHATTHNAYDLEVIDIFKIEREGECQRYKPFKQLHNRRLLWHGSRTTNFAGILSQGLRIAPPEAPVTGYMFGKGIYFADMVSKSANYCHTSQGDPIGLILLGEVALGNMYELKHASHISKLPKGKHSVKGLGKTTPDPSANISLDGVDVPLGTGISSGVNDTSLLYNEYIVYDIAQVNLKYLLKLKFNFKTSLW
Procedure, shortened: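 Human PARP1 with NAD and activated DNA, compounds at 10 μM final, 30 min at room temperature in dark. Resazurin/diaphorase cycling mix then added for 1 hr in dark before stop buffer; fluorescent homogeneous kit read-out.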

NRF2 = experiment: qPCR analysis of NRF2-regulated genes; format: cell-based, human; settings: for fold induction at 10 µM: Homo sapiens
Procedure, shortened: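 WI-38 cells treated with compound at 10 μM for 24 hrs, then processed by Cells-to-Ct for RNA isolation, RT and qPCR of NRF2-regulated genes (HMOX1, NQO1, GCLC, GSTM1). Expression normalized to B2M, PPIA and GAPDH; siRNA knockdown of FOXO3 or NRF2 (10 nM) preceded treatment in some runs.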

WI-38 cells = settings: no H2O2 stress, 10 uM; negative control 0.41% ± 0.23%
Experimental: WI-38 cells were seeded on 384-well plates for 24 hrs and then incubated with small molecules for 24 hrs. […] Images were collected on an INCell Analyzer 2000 (GE) and analyzed with the Developer software.

[1] = WI-38 cells, 10 μM, 24 hrs, n=4, qPCR normalized by B2M, read-out: DDB1 Normalized fold change
[2] = WI-38 cells, 10 μM, 24 hrs, n=4, qPCR normalized by B2M, read-out: GADD45A Normalized fold change
[3] = WI-38 cells, 10 μM, 24 hrs, n=4, qPCR normalized by B2M, read-out: SESN1 Normalized fold change
[4] = qPCR, WI-38 cells, 10 μM, n=4, 24 hrs, normalized by B2M, read-out: CAT Normalized fold change
[5] = qPCR, WI-38 cells, 10 μM, n=4, 24 hrs, normalized by B2M, read-out: SOD2 Normalized fold change
[6] = qPCR, WI-38 cells, 10 μM, n=4, 24 hrs, normalized by B2M, read-out: TXNIP Normalized fold change
[7] = Assay 2(z), 1.0 × 10^9 bacteria/ml, wild type + FuDR (2012 July), read-out: Lifespan assay in liquid
[8] = Assay 3(aa), 2.5 × 10^9 bacteria/ml, wild type + FuDR, read-out: Lifespan assay in liquid
[9] = Assay 4(ab), 2.0 × 10^10 bacteria/ml, CF512 worms, no FuDR, read-out: Lifespan assay on plates
[10] = WI-38 cells, 10 μM, 24 hrs, n=4, qPCR normalized by B2M, read-out: GCLC Normalized fold change
[11] = WI-38 cells, 10 μM, 24 hrs, n=4, qPCR normalized by B2M, read-out: GSTM1 Normalized fold change
[12] = WI-38 cells, 10 μM, 24 hrs, n=4, qPCR normalized by B2M, read-out: HMOX1 Normalized fold change
[13] = WI-38 cells, 10 μM, 24 hrs, n=4, qPCR normalized by B2M, read-out: NQO1 Normalized fold change

SMILES | E = Potential FOXO3 Activation (FOXO3; 2-point score) | fold induction at 10 µM (FOXO3; [1]) | fold induction at 10 µM (FOXO3; [2]) | fold induction at 10 µM (FOXO3; [3]) | fold induction at 10 µM (FOXO3; [4]) | fold induction at 10 µM (FOXO3; [5]) | fold induction at 10 µM (FOXO3; [6]) | K = Sestrin induction (FOXO3) | E = Potential FOXO3 Activation (FOXO3; summary score) | ILS at 66 µM (C. elegans; [7]) | ILS at 66 µM (C. elegans; [8]) | ILS at 66 µM (C. elegans; [9]) | Extension of C. elegans' lifespan (qualitative) (C. elegans) | O = Life span- extending scores in worms (C. elegans) | M = Lifespan-extending scores in worms (C. elegans) | L = PARP inhibition (human PARP1) | F = Potential NRF2 Activation (NRF2; 2-point score) | fold induction at 10 µM (NRF2; [10]) | fold induction at 10 µM (NRF2; [11]) | fold induction at 10 µM (NRF2; [12]) | further results
O=[N+]([O-])c1ccccc1S(=O)(=O)Nc1cccc2cccnc12 [Gr-3A] | 0 | 0.969 | 1.4 | 1.18 | 0.871 | 1.48 | 0.754 | 0 | 0 | 33.4% | 14.2% | 16.3% | could extend animal's lifespan | 2 (2 for observed in more than 2 trials) | 2 (2 for observed in more than 2 trials) | 0 | 0 | 1.01 | 1.35 | 1.41 | fold induction at 10 µM (FOXO3; 24 h, Assay 10(m), at 10 uM, qPCR, read-out: Induction of FOXO3-regulated genes: CAT normalized fold-change): 0.83; fold induction at 10 µM (FOXO3; 24 h, Assay 10(m), at 10 uM, qPCR, read-out: Induction of FOXO3-regulated genes: DDB1 normalized fold-change): 0.81; fold induction at 10 µM (FOXO3; 24 h, Assay 10(m), at 10 uM, qPCR, read-out: Induction of FOXO3-regulated genes: SESN1 normalized fold-change): 1.21; fold induction at 10 µM (FOXO3; 24 h, Assay 10(m), at 10 uM, qPCR, read-out: Induction of FOXO3-regulated genes: TXNIP normalized fold-change): 0.64; fold induction at 10 µM (FOXO3; 10 μM, 24 hrs, WI-38 cells, qPCR, normalized to B2M, n = 4, read-out: CAT expression, normalized fold change (FOXO3-regulated gene)): 0.87; fold induction at 10 µM (FOXO3; 10 μM, 24 hrs, WI-38 cells, qPCR, normalized to B2M, n = 4, read-out: SESN1 expression, normalized fold change (FOXO3-regulated gene)): 1.18; fold induction at 10 µM (FOXO3; 10 μM, 24 hrs, WI-38 cells, qPCR, normalized to B2M, n = 4, read-out: TXNIP expression, normalized fold change (FOXO3-regulated gene)): 0.75; fold induction at 10 µM (FOXO3; fold change, qPCR, WI-38 cells, 10 μM, 24 hrs, read-out: Summary of effects on FOXO3-regulated genes: CAT): 0.87; fold induction at 10 µM (FOXO3; fold change, qPCR, WI-38 cells, 10 μM, 24 hrs, read-out: Summary of effects on FOXO3-regulated genes: SESN1): 1.18; fold induction at 10 µM (FOXO3; fold change, qPCR, WI-38 cells, 10 μM, 24 hrs, read-out: Summary of effects on FOXO3-regulated genes: TXNIP): 0.75; ILS at 66 µM (C. elegans; Assay 5(ac), 1.0 × 10^11 bacteria/ml, CF512 worms, no FuDR, read-out: Lifespan assay on plates): 8.4%; fold induction at 10 µM (NRF2; 24 h, Assay 12(o), at 10 uM, qPCR, read-out: Induction of NRF2-regulated genes: NQO1 normalized fold-change): 1.3; fold induction at 10 µM (NRF2; rounded fold change, WI-38 cells, 10 μM, 24 hrs (RP11 for Gr-1D, RP29 for Gr-4D), read-out: Summary of effects on NRF2-regulated genes: HMOX1): 1.41; fold induction at 10 µM (NRF2; rounded fold change, WI-38 cells, 10 μM, 24 hrs (RP29 for Gr-4D), read-out: Summary of effects on NRF2-regulated genes: NQO1): 1.37; fold induction at 10 µM (NRF2; 10 μM, 24 hrs, WI-38 cells, qPCR, normalized to B2M, n = 4, read-out: HMOX1 expression, normalized fold change (NRF2-regulated gene)): 1.41; fold induction at 10 µM (NRF2; 10 μM, 24 hrs, WI-38 cells, qPCR, normalized to B2M, n = 4, read-out: NQO1 expression, normalized fold change (NRF2-regulated gene)): 1.37; fold induction at 10 µM (NRF2; [13]): 1.37; F = Potential NRF2 Activation (NRF2; summary score): 0; Percentage of propidium iodide-positive dead cells (no H2O2 stress treatment), at 10 uM (WI-38 cells): 0.54% ± 0.16%,
Cc1ccc(S(=O)(=O)Nc2cccc3cccnc23)cc1 [Gr-3B] | 0 | 1.12 | 1.16 | 1.07 | 1.11 | 1.14 | 1.06 | 0 | 0 | 13.7% | 12.5% | 8.1% | could extend animal's lifespan | 2 (2 for observed in more than 2 trials) | 2 (2 for observed in more than 2 trials) | 0 | 0 | 1.1 | 1.1 | 1.04 | ILS at 60 µM (C. elegans; in liquid, wild type, with FuDR, 1.0 × 10^9 bacteria/ml, read-out: relative change of mean lifespan vs control, Trial 1): 13.7%; ILS at 60 µM (C. elegans; in liquid, wild type, with FuDR, 2.5 × 10^9 bacteria/ml, read-out: relative change of mean lifespan vs control, Trial 2): 12.5%; ILS at 60 µM (C. elegans; on plate, CF512 temperature-sensitive sterile animals, without FuDR, 2.0 × 10^10 bacteria/ml, read-out: relative change of mean lifespan vs control, Trial 3): 8.1%; fold induction at 10 µM (NRF2; [13]): 1.07; F = Potential NRF2 Activation (NRF2; summary score): 0; Percentage of propidium iodide-positive dead cells (no H2O2 stress treatment), at 10 uM (WI-38 cells): 0.47% ± 0.20%,
